From patent publication US7173014B2, “HIV-specific synthetic oligonucleotides and methods of their use” (priority 1997, dated 2007)
d = 2'-deoxy (DNA); m = 2'-O-methyl

Experiments:
HIV-2 (ROD) = assay: XTT-based anti-HIV assay, HIV-2; type: cell-based
Source text: (§1) The initial experiment performed involved evaluation of Oligos 12, 32, and 41 against three laboratory strains of HIV-1 (IIIB, RF and SK1) and one strain of HIV-2 (ROD) in parallel with the positive control compound ddC in the XTT-based anti-HIV assay. All these oligonucleotides are active against both HIV-1 and HIV-2.
(§2) CEM-SS sells (AIDS Research and Reference Reagent Program, NIH) or other established human T cell lines used in these experiments were passaged in T-150 flasks for use in the assay. On the day preceding the assay, the cells were split 1:2 to assure they would be in an exponential growth phase at time of infection. On the day of assay the cells were washed twice with tissue culture medium and resuspended in fresh tissue cultures medium. Total cell and viability counting was performed using a hemacytometer and trypan blue dye exclusion. Cell viability was greater than 95% for the cells to be utilized in the assay. The cells were pelleted and resuspended at 2.5×10^4 cells per ml in tissue culture medium. Cells were added to the drug-containing plates in a volume of 50 μl.
(§3) A pretitered aliquot of virus was removed from the freezer −80° C.) and allowed to thaw slowly to room temperature in a biological safety cabinet. The virus was resuspended and diluted into tissue culture medium such that the amount of virus added to each well in a volume of 50 μl will be the amount determined to give complete cell killing at 6 days post-infection. In general the virus pools produced with the IIIB isolate of HIV required the addition of 5 μl of virus per well.
Each plate contained cell control wells (cells only), virus control wells (cells plus virus), drug toxicity control wells (cells plus drug only), drug colorimetric control wells (drug only) as well as experimental wells (drug plus cells plus virus).
After 6 days of incubation at 37° C. in a 5% CO2 incubator, the test plates were analyzed by staining with the tetrazolium dye XTT. XTT-tetrazolium is metabolized by the mitochondrial enzymes of metabolically active cells to a soluble formazan product, allowing the rapid quantitative analysis of the inhibition of HIV-induced cell killing by anti-HIV test substances. On day 6 post-infection plates were removed from the incubator and observed. The use of round bottom microtiter plates allows rapid macroscopic analysis of the activity of a given test compound by the evaluation of pellet size. The results of the macroscopic observations were confirmed and enhanced by further microscopic analysis.
XTT solution was prepared daily as a stock of 1 mg/ml in PBS. Phenazine methosulfate (PMS) solution was prepared at 15 mg/ml in PBS and stored in the dark at −20° C. XTT/PMS stock was prepared immediately before use by diluting the PMS 1:100 into PBS and adding 40 μl per ml of XTT solution. Fifty microliters of XTT/PMS was added to each well of the plate and the plate was incubated for an additional 4 hours at 37° C. Adhesive plate sealers were used in place of the lids, the sealed plate was inverted several times to mix the soluble formazan product and the plate was read spectrophotometrically at A450 nm with a Molecular Devices Vmax plate reader.

[1] = system: monocyte-macrophage-tropic strains BaL and ADA; assay: Anti-HIV assay in fresh human monocyte-macrophages; type: cell-based, HIV-1
Procedure: In addition to these T-tropic strains, the activity of the compounds was also evaluated against the monocyte-macrophage strains BaL and ADA. Oligos 12 and 32 according to the invention, as well as Oligo 41 are active against low passage clinical T-tropic strains of HIV-1. The activity of the compounds varies from strain to strain. The compounds were not active against the monocyte-macrophage-tropic strains BaL and ADA.
For isolation of adherent cells, 3×10^6 non-PHA stimulated peripheral blood cells were resuspended in Hanks buffered saline (with calcium and magnesium) supplemented with 10% human AB serum. The cells were placed in a 24-well microtiter plate at 37° C. for 2 hours. Non-adherent cells were removed by vigorously washing six times. The adherent cells were cultured for 7 days in RPMI 1640 tissue culture medium with 15% fetal bovine serum. The cultures were carefully monitored for confluency during this incubation period. Infection of the cells was performed with the monocytotropic HIV-1 strains BaL or ADA and the matched pair of AZT-sensitive and AZT-resistant virus isolates. Each of these virus isolates was obtained from the NIAID AIDS Research and Reference Reagent Program. High titer pools of each of these viruses have been harvested from infected cultures of peripheral blood adherent cells and frozen in 1.0 ml aliquots at −80° C. Monocyte-macrophage monolayers were infected at an MOI of 0.1. Compounds to be evaluated in the monocyte-macrophage assay are added to the monolayers shortly before infection in order to maximize the potential for identifying active compounds.
At 2 days post-infection, the medium was decanted and the cultures washed twice with complete medium in order to remove excess virus. […] Control curves are generated in each assay to accurately quantify the amount of capsid protein in each sample. Data was obtained by spectrophotometric analysis at 450 nm using a plate reader (Molecular Devices Vmax). P24 concentrations were calculated from the optical density values by use of the Molecular Device software package Soft Max.

HIV-1 (IIIB, RF and SK1) = assay: XTT-based anti-HIV assay, laboratory strains of HIV-1; type: cell-based
Source text: as §1
as §2, with “Cells were added to the drug-containing plates in a volume of 50 μl.” left out
as §3, with “In general the virus pools produced with the IIIB isolate of HIV required the addition of 5 μl of virus per well.” left out
After 6 days of incubation at 37° C. in a 5% CO2 incubator, the test plates were analyzed by staining with the tetrazolium dye XTT. XTT-tetrazolium is metabolized by the mitochondrial enzymes of metabolically active cells to a soluble formazan product, allowing the rapid quantitative analysis of the inhibition of HIV-induced cell killing by anti-HIV test substances. […]
XTT solution was prepared daily as a stock of 1 mg/ml in PBS. […] Adhesive plate sealers were used in place of the lids, the sealed plate was inverted several times to mix the soluble formazan product and the plate was read spectrophotometrically at A450 nm with a Molecular Devices Vmax plate reader.

[2] = system: low passage, clinical strains of HIV-1; assay: Anti-HIV activity in fresh human peripheral blood mononuclear cells; type: cell-based; details: fresh human PBMC; varies from strain to strain
Procedure: In another experiment, the anti-HIV activity of Oligos 12, 32, and 41 was evaluated against a variety of low passage, clinical strains of HIV-1 in fresh human peripheral blood mononuclear cells. These strains include viruses obtained from pediatric patients attending the Children's Hospital University of Alabama at Birmingham as well as viruses representative of the various HIV-1 clades found throughout the world, shown below in TABLE 4.
Fresh human peripheral blood lymphocytes (PBL) were isolated from voluntary Red Cross donors, seronegative for HIV and HBV. Leukophoresed blood was diluted 1:1 with Dulbecco's phosphate buffered saline (PBS), layered over 14 ml of Ficoll-Hypaque density gradient in a 50 ml centrifuge tube. Tubes were then centrifuged for 30 minutes at 600×g. Banded PBLs were gently aspirated from the resulting interface and subsequently washed 2× with PBS by low speed centrifugation. After final wash, cells were enumerated by trypan blue exclusion and re-suspended at 1×10^7/ml in RPMI 1640 with 15% Fetal Bovine Serum (FBS), 2 mM L-glutamine, […] PHA-P and allowed to incubate for 48–72 hours at 37° C. After incubation, PBLs were centrifuged and reset in RPMI 1640 with 15% FBS, 2 mM L-glutamine, 100 U/ml penicillin, 100 μg/ml streptomycin, 10 μg/ml gentamycin, and 20 U/ml recombinant human IL-2. PBLs were maintained in this medium at a concentration of 1–2×10^6/ml with bi-weekly medium changes, until use in assay protocol. […]
In the standard PBL assay (MOI: 0.2), the assay was ended on day 7 following collection of cell free supernatant samples for reverse transcriptase activity assay. In the low MOI PBL assay (MOI: 0.02), supernatant samples were collected on day 6, day 11, and day 14 post-infection and analyzed for RT activity. […] Opti-Fluor O was added to each sample and incorporated radioactivity was quantified utilizing a liquid scintillation counter, (Wallac 1450 Microbetaplus, Gaithersburg, Md.).

[3] = In vivo bioavailability after a single dose, monkeys; details: intravenous and oral
[4] = In vivo bioavailability after a single dose, rats; details: intravenous and oral
HIV-1 IIB = assay: CPE-based inhibition of acute infection of MT-4 cells (MTT); type: cell-based
Procedure: CPE based infection experiments were performed using MT-4 cells (Pauwels et al. (1988) J. Virol. Meth. 20:309; Papp et al. (1997) AIDS Research and Human Retroviruses In Press). MT-4 cells were obtained from the AIDS Research and Reference Reagent Bank, Division of AIDS, NIAID, NIH contributed Dr. Richman (Pauwels et al. (1988) J. Virol. Meth. 20:309) T-lymphoid H9 (HUT-78) cells were obtained from Dr. Robert Gallo, National Cancer Institute, Bethesda, Md. (Popovic et al. (1984) Science 224:497; Gazdar et al. (1980) Blood 55:409). Cell cultures were maintained in RPMI 1640 medium (GIBCO Laboratories, Grand Island, N.Y.) supplemented with 20% (H9 cells), or 10% (MT-4 cells) heat-inactivated fetal bovine serum (Sigma Chemical Co., St. Louis, Mo.) 250 units/ml penicillin, 250 μg/ml streptomycin, 2 mM 1-glutamine, and 10 mM HEPES (N-2-hydroxyethylpiperazine-N′-2-ethanesulfonic acid) buffer (complete medium) at 37° C. in 5% CO2. HIV-1 IIB was originally obtained from Dr. Robert Gallo, National Cancer Institute (Popovic (1984) Science 224:497). Virus stocks of HIV-1 were prepared from cell-free filtered supernatant of chronically infected H9 cultures by the shaking method as previously described by Vujoie et al. (J. Infectious Diseases (1988) 157:1047).
Experiments were performed under two sets of conditions. […] The cultures were incubated for 6 days and CPE measured using the MTT dye method. […]

Row | Substance | level of activity against the HIV-2 strain ROD (HIV-2 (ROD); compared with the HIV-1 strains, XTT assay) | activity against HIV-2 (HIV-2 (ROD); strain ROD, XTT assay) | activity against monocyte-macrophage-tropic strains BaL and ADA [1] | activity against HIV-1 (HIV-1 (IIIB, RF and SK1)) | activity against low passage clinical T-tropic strains of HIV-1 [2] | bioavailability [3] | bioavailability [4] | inhibition of HIV-2-induced cell killing (HIV-2 (ROD); XTT assay (FIG. 3)) | inhibition of HIV-1 infection (HIV-1 IIB; MT-4 cells treated during initial infection (FIG. 1)) | inhibition of HIV-1 infection (HIV-1 IIB; MT-4 cells treated following initial infection, post-viral adsorption (FIG. 2))
1 | UCGCACCCATCTCTCTCCUUC (chemistry not given here) [Oligo 12] | enhanced level of activity | active | not active | active | active | intravenously and orally bioavailable | intravenously and orally bioavailable | – | – | –
2 | 4×4: 21mer phosphorothioate linked oligonucleotide, deoxyribonucleotides flanked on each side by four 2′-O-methyl ribonucleotides; SEQ ID NO:1 (UCGCACCCATCTCTCTCCUUC; sugars from the 5' end m4 d13 m4, all phosphorothioate, methylation of C not given here) | – | – | – | – | – | – | – | inhibit HIV-2-induced cell killing | inhibition of HIV-1 infection | inhibition of HIV-1 infection
